Assay [1] deals with LNCaP cells. Briefly: Growth inhibition by cell counting, LNCaP cells. Type of assay: cell-based. To be noted: Homo sapiens, 100 μg/ml, read-out: growth inhibition as compared to controls. As for the experimental part: DU145 and LNCaP cells were obtained from ATCC. The cells were grown in Eagle's MEM supplemented with 1 mM sodium pyruvate, 0.1 mM glutamine, 1.5 g/l sodium bicarbonate, and 10% fetal bovine serum. A confluent plate of cells contained approximately 2×10^6 DU145cells and 10^6 LNCaP cells.
The test drug dissolved in DMSO at a concentration of 100 mg/ml was added to 6 test plates and to control plates. Two control and two drug plates each were harvested with addition of 1 ml/plate of trypsin-EDTA at 24, 48, and 72 hrs and counted by […]. The trypsinized plates were incubated for 3 min at 37° C., and 5 ml DMEM was added to each plate. Cells were collected in 15 ml tubes, and 2 ml of each cell suspension was added to 20 ml Isoton and counted.

Assay [2] relates to CEM (lymphoblastic leukemia). Briefly: 3-day MTT assay, CEM cells. Type of assay: cell-based, human. As to conditions: 195 ng/ml phytochemical alone. As to the method:
(§1) Biological activities of the materials produced as described in Examples 1 to 5 were determined using cultured cells. The IC50s of Boswellin (“BA1”), AKBA enriched peracetylated boswellin (“BA2”) and AKBA enriched boswellin (“BA3”) in various human and murine prostate, leukemia, melanoma, lung and breast cancer cell lines were determined. The IC50s were determined using a standard MTT assay using CEM (lymphoblastic leukemia), Du 145 (prostate cancer), PC-3 (prostate cancer), LNCaP (prostate cancer), Sk-MEL2 (human melanoma), P388D1 (murine leukemia), K562 (human mycloid leukemia), A549 (human lung cancer), MCF-7 (human breast cancer), B16F (murine melanoma) cancer cell lines (Table 2).
(§2) DU145, PC-3 and CEM cells in culture we studied to determine whether other natural products have synergistic effects with AKBA enriched boswellin. Methods for culturing the cells are described above in Example 6. To different samples of cells, we added AKBA enriched boswellin in concentrations from 0 to 120 μg/ml, resveratrol in concentrations from 0 to 3125 ng/ml, baicalin in concentrations from 0 to 3125 ng/ml and licochalcone A in concentrations from 0 to 800 μg/ml. In analogous concentrations combinations of AKBA enriched boswellin and resveratrol, baicalin and licochalcone A were studied. Cell survival was measured using the MTT assay described above.

The subject of assay [3] is PC-3 (prostate cancer). As to the kind of experiment: 3-day MTT assay, PC-3 cells. The class given is cell-based, human. As to the method: as §2, with “The IC50s were determined using a standard MTT assay using CEM (lymphoblastic leukemia), Du 145 (prostate cancer), PC-3 (prostate cancer), LNCaP (prostate cancer), Sk-MEL2 (human melanoma), P388D1 (murine leukemia), K562 (human mycloid leukemia), A549 (human lung cancer), MCF-7 (human breast cancer), B16F (murine melanoma) cancer cell lines (Table 2). […] DU145,” for “DU145,”
(In general: Tetrazolium assays rely on reduction of a dye to a coloured formazan, in cell work by metabolically active cells.)

Assay [4] deals with DU145 (prostate cancer). As to the kind of experiment: 3-day MTT assay, DU145 cells. The class given is cell-based, human. To be noted: DU145, 195 ng/ml phytochemical alone. As for the experimental part:
as §1, §2

Where two headings read alike, the source gives them in different places.

With `O=c1c(-c2ccc(O)cc2)coc2cc(O)cc(O)c12` [Genistein], the results for the inhibition at 100 µg/mL in assay [1] (24 h), in assay [1] (48 h) and in assay [1] (72 h) were 32%, 49.4% and 60.8%, respectively.
`O=C(O)[C@H]1O[C@@H](Oc2cc3oc(-c4ccccc4)cc(=O)c3c(O)c2O)[C@H](O)[C@@H](O)[C@@H]1O` [baicalin]: the “% cell survival (conc. phytochemical)” value in assay [2] is reported as 85 (195 ng/ml baicalin) %; in assay [3] (PC-3, 12 ng/ml phytochemical alone), 93 (12 ng/ml baicalin) %; in assay [4] it was 78 (195 ng/ml baicalin) %.
With `C=CC(C)(C)c1cc(/C=C/C(=O)c2ccc(O)cc2)c(OC)cc1O` [licochalcone A], in assay [3] (PC-3, 3.1 μg/ml phytochemical alone), the “% cell survival (conc. phytochemical)” value was 98 (3.1 μg/ml licochalcone A) %.
As for `Oc1ccc(C=Cc2cc(O)cc(O)c2)cc1` [resveratrol], the “% cell survival (conc. phytochemical)” value was 85 (195 ng/ml resveratrol) % in assay [2] and 89 (195 ng/ml resveratrol) % in assay [4].

A word on the inhibition: it is the relative decrease from the control value, in per cent.
